The source made the active and inactive calls.
Key:
[1] = growth inhibition of yeast DHODH-expressing 3D7 parasites – SYBR Green, dry powder samples, dose response (AID 1159570); assay type: functional, cell-based;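 further: parasite growth measured after 72 hours of compound exposure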
[2] = Dd2 malaria parasite growth inhibition potency – SYBR Green, dry powder samples, dose response (AID 1159566); assay type: functional, cell-based;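 further: potency for growth inhibition with lower SYBR green DNA signal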
[3] = toxicity to human HepG2 hepatoma cells – cell-based, plate reader, dry powder samples, cytotoxicity control, dose response (AID 1159569); assay type: functional;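 further: inhibitor potency with signal falling toward the positive control level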
[4] = growth inhibition of PfATP4-mutant resistant parasites – NITD609-resistant line, SYBR Green, dry powder, dose response (AID 1159571); assay type: functional, cell-based;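 further: parasites synchronized at ring stage by sorbitol before testing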
[5] = P. falciparum Dd2 growth inhibitors, dose response, SYBR Green, cherry-picked samples (AID 1159567); assay type: functional, cell-based
[6] = OVCAR-3 cell viability loss – plate reader, dry powder samples, PAX8 inhibitor project, dose response (AID 743044); assay type: functional, cell-based
[7] = A2780 cell killing – plate reader, dry powder samples, cytotoxicity control, dose response (AID 743046); assay type: functional, cell-based
Paired box protein Pax-8 = Paired box protein Pax-8 (Homo sapiens, UniProt Q06710); assay: PAX8 transcriptional activity inhibition in RMG-I – RMG-I cells, luciferase, cherry-pick, dose response (AID 687027); assay type: functional, cell-based;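 further: luciferase reporter driven by Pax8 target thyroperoxidase promoter measured by SteadyGlo luminescence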
[8] = OVCAR8 cell viability loss – plate reader, dry powder samples, PAX8 project, dose response (AID 743197); assay type: functional, cell-based; conditions: OVCAR-8
Caspase-6 = Caspase-6 (Homo sapiens, UniProt P55212); assay: inhibition of CASP6 peptide cleavage – biochemical, VEID-R110 fluorescence, cherry-pick, dose response (AID 720632)
HEK293 [9] = assay: cells; assay type: functional, cell-based; conditions: Homo sapiens
HEK293 [10] = assay: inhibition of NOD1-driven NF-kB reporter – cell-based, luminescence, uHTS, primary screen (AID 1578); assay type: functional; conditions: Homo sapiens
HEK293 [11] = assay: cells; assay type: functional, cell-based; conditions: Homo sapiens; remark: listed apart in the source
[12] = reduced cellular PGC1a acetyl-lysine signal – cell-based, cherry-picked samples, dose response (AID 720514); assay type: functional;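 further: potency may reflect raised or lowered acetylation signal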
BJ [13] = assay: cells; assay type: functional, cell-based; conditions: Homo sapiens
BJ [14] = assay: BJ-TERT fibroblast viability loss – cell-based, RAS-independent, luminescence, dose response (AID 1933); assay type: functional; conditions: Homo sapiens
HEK293 [15] = assay: NOD2 signaling inhibitors in MDP-stimulated cells, cell-based, uHTS, luminescence (AID 2001); assay type: functional; conditions: Homo sapiens
BJ [16] = assay: BJ-TERT-LT-ST fibroblast viability loss – cell-based, RAS-independent, luminescence, dose response (AID 1935); assay type: functional; conditions: Homo sapiens;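 further: BJ fibroblasts immortalized with TERT plus LT and ST oncogenes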
[17] = DRD fibroblast viability loss – cell-based, non-viral oncogenic, luminescence, dose response (AID 1934); assay type: functional; conditions: Homo sapiens
[18] = target: Luciferin 4-monooxygenase (Photinus pyralis, UniProt P08659); assay: Counter Screen for Luciferase-based Assay Positives. [Related pubchem assays: 620, 618, 411 ]
HT-1080 = assay: HT1080 cell viability loss – fluorescence readout (AID 620); assay type: functional, cell-based; conditions: Homo sapiens
[19] = target: T1, E3 ubiquitin-protein ligase XIAP (Homo sapiens, UniProt P98170); assay: small molecules displacing peptide from XIAP – biochemical, IAP family, fluorescence polarization (AID 1018); assay type: functional
[20] = target: T1, E3 ubiquitin-protein ligase XIAP; assay: Counter Screen using XIAP-Bir3 for Chemical Antagonists of Bir1/2 domains of IAP-family anti-apoptotic proteins. [Related pubchem assays (depositor defined):AID1018, AID1449, AID1514, AID1638, AID1749, AID1750, AID488957, AID488963]
[21] = target: T2, Replicative DNA helicase DnaB (Mycobacterium tuberculosis, UniProt P9WMR3); assay: DnaB intein splicing inhibitors, dose response, biochemical, cell-free fluorescence (AID 449749); assay type: functional
T2 sequence (P9WMR3 whole entry): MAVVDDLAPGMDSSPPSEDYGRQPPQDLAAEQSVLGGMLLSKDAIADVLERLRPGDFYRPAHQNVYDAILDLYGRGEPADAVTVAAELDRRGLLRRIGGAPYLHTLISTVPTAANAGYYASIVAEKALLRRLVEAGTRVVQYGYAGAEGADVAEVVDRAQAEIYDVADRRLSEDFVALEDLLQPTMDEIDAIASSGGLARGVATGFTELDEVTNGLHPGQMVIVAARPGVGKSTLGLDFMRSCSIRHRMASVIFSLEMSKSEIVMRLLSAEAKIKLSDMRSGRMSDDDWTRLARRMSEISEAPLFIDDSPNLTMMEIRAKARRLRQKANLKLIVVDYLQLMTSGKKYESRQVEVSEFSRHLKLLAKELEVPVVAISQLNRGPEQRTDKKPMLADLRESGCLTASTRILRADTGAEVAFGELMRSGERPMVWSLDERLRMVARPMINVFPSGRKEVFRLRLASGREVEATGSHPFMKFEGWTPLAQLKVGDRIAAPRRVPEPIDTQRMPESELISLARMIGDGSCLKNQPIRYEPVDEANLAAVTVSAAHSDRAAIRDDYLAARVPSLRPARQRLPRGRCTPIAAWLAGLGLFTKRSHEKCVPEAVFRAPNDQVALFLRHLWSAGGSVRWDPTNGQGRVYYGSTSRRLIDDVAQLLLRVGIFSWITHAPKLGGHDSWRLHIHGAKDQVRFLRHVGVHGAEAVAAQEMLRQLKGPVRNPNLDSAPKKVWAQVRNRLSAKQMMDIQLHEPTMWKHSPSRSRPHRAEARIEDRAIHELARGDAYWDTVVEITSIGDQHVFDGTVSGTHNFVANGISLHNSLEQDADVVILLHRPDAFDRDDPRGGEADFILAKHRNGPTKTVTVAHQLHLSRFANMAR

[22] = microbe, parasite or virus in culture; assay type: functional; conditions: Mycobacterium tuberculosis
BJ [23] = assay: growth inhibition of engineered Ras-driven BJ cells – cell-based, alamar blue fluorescence, cherrypicked samples, dose response (AID 2631); assay type: functional; conditions: Homo sapiens;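 further: confirmatory dose-response assay in RAS-dependent BJ fibroblasts engineered with TERT, LT and ST, with cytotoxicity read by fluorescence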
Protein RecA = target: T3, Protein RecA (Mycobacterium tuberculosis, UniProt P9WHJ3); assay: Fluorescence Cell-Free Homogeneous Dose Retest to Identify Inhibitors of RecA-Intein Splicing Activity. [Related pubchem assays (depositor defined):AID2097, AID2223, AID489010, AID492950]; assay type: functional
T3 sequence (P9WHJ3 whole entry): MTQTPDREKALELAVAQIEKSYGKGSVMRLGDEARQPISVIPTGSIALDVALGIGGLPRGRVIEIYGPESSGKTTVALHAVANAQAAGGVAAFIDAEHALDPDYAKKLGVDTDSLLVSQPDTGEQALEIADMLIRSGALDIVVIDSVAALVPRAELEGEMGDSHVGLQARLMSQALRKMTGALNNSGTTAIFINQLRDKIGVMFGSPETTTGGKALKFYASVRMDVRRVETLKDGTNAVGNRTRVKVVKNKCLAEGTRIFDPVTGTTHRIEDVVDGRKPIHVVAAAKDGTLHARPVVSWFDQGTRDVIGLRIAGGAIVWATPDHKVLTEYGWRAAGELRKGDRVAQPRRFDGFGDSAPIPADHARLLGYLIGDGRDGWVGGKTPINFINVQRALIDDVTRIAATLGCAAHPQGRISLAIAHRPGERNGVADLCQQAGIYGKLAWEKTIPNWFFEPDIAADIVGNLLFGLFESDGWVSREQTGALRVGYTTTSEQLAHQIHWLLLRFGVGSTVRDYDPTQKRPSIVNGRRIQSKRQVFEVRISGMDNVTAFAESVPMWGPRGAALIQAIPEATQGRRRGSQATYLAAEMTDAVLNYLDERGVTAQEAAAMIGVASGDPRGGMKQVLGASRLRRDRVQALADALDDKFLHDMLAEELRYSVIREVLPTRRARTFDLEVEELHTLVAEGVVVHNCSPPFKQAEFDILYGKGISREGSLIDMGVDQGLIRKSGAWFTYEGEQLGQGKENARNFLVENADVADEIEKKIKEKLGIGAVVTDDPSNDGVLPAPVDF

[24] = target: G-protein coupled receptor 183 (Homo sapiens, UniProt P32249); assay: SAR confirmation of small molecule antagonists of the EBI2 receptor via a luminescent beta-arrestin assa.; assay type: functional
[25] = blockers of HIV-1 ZM109 envelope-driven cell-cell fusion – HeLa effector, CEM target cells, luciferase, cherry-pick, dose response (AID 652058); assay type: functional, cell-based;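 further: luciferase signal from HIV-1 Env mediated cell-cell fusion of effector and target cells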
[26] = HIV-1 AD8 envelope cell-cell fusion blockers – cherry-pick, dose response (AID 652062); assay type: functional, cell-based;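 further: luciferase signal from cell-cell fusion driven by HIV-1 clade B AD8 Env; potency is for inhibitors of fusion seen as a drop in luminescence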
[27] = blockers of HIV-1 envelope-mediated cell-cell fusion – cherry-pick, dose response (AID 652057); assay type: functional, cell-based
[28] = toxicity to human hepatoma HepG2 cells – cell-based, cherry-picked samples, cytotoxicity control, dose response (AID 1159577); assay type: functional

T1 sequence (P98170 whole entry): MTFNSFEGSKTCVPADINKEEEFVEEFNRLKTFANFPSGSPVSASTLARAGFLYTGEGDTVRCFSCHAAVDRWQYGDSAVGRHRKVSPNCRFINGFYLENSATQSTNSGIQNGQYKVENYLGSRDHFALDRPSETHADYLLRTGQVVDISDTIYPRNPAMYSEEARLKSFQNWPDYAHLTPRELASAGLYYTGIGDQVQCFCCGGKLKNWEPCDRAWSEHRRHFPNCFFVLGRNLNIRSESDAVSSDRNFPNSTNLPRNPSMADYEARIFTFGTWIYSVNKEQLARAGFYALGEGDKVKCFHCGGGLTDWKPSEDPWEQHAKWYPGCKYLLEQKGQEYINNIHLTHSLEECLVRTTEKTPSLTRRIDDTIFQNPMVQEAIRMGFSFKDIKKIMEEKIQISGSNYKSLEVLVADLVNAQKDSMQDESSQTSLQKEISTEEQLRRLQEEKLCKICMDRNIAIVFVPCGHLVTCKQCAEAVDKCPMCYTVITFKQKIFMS
G-protein coupled receptor 183, sequence (P32249 whole entry, the tested form may be a part): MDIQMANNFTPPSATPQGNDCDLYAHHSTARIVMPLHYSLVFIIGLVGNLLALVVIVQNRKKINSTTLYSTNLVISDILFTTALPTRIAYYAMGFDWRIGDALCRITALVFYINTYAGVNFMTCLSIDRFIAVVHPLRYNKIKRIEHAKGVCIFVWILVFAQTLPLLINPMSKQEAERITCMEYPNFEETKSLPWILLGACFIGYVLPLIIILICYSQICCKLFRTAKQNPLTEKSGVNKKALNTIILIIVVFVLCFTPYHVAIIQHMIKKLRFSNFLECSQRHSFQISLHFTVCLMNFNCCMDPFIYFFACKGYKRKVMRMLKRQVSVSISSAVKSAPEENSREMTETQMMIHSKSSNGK
Luciferin 4-monooxygenase, sequence (P08659 whole entry): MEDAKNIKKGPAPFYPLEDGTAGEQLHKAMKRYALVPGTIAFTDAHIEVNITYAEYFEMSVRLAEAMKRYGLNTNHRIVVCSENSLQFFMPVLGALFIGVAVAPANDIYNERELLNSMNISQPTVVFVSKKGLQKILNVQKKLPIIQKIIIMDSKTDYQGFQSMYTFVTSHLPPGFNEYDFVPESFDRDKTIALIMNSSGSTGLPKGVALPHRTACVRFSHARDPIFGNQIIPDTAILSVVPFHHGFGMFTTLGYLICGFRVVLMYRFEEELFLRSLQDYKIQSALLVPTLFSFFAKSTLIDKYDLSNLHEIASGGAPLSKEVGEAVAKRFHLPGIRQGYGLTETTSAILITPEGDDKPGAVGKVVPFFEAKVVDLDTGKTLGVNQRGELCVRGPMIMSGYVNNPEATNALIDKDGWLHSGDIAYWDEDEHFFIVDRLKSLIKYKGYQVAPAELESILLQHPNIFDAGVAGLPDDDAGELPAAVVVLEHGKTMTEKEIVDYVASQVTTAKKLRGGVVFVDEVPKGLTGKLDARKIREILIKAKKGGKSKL
Caspase-6, sequence (P55212 24-179 limits assumed): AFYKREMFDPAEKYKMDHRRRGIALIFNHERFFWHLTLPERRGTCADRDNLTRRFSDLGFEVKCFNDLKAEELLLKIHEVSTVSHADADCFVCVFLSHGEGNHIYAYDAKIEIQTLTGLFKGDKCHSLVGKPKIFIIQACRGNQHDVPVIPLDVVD
Caspase-6, sequence (P55212 194-293 limits assumed): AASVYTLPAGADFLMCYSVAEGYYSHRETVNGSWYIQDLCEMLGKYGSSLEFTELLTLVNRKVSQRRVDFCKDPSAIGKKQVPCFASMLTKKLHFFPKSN
Paired box protein Pax-8, sequence (Q06710 whole entry): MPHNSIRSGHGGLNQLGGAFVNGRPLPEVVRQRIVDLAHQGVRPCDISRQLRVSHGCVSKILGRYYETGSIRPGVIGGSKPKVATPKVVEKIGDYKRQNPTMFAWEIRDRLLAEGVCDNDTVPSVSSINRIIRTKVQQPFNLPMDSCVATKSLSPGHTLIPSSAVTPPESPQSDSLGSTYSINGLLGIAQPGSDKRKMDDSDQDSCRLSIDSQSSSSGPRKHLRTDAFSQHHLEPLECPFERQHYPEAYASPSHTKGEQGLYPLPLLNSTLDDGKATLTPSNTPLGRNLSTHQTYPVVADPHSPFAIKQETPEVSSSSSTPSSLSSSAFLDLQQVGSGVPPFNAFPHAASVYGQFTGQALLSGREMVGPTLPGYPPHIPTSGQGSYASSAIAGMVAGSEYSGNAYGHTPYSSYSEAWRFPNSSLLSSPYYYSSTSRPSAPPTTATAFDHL

OC[C@@H]1[C@@H](c2ccccc2)C2(CN(CC3CC3)C2)N1Cc1ccc(F)cc1
active: AC50 [1] 1.98 µM | AC50 [2] 1.09 µM | AC50 [3] 43.6 µM | AC50 [4] 1.52 µM | AC50 [5] 0.919 µM

CC(C)NC(=O)N1Cc2cc(C(=O)NCC(F)(F)F)nc(-c3cccc(-c4cc5ccccc5o4)c3)c2[C@H]1CCO
active: AC50 [6] 38.2 µM | AC50 [7] 16.8 µM | AC50 (Paired box protein Pax-8) 7.2 µM | AC50 [8] 58.2 µM | AC50 [5] 5.15 µM

Cc1ccc(Sc2ccc(S(=O)(=O)Nc3ccc(CC(=O)O)cc3)cc2)cc1C
active: AC50 (Caspase-6) 49.3 µM

O=S(=O)(c1ccc(Cl)cc1)c1snnc1-c1ccccc1
active: IC50 (HEK293 [9]) 2.17 µM | EC50 (HEK293 [10]) 10.7 µM | AC50 [12] 7.86 µM | EC50 (BJ [13]) 3.53 µM | EC50 (BJ [14]) 2.39 µM | EC50 [17] 4.96 µM | EC50 [18] 3.73 µM | EC50 (HT-1080) 20.7 µM | AC50 [21] 23.9 µM | CC50 [22] 2.44 µM | EC50 (BJ [23]) 0.51 µM | EC50 (Protein RecA) 9.19 µM
inactive: IC50 (HEK293 [11]) > 20 µM | IC50 (HEK293 [15]) 6.92 µM | IC50 [20] > 100 µM
inconclusive: EC50 (BJ [16]) 3.25 µM
> 100 µM (not active): IC50 [19]

O=C(/C=C/c1ccc(Br)cc1)N1CCN(Cc2ccccc2F)CC1
active: IC50 [24] 0.0287 µM

O=C(CCCc1ccc(Br)cc1)N1CCN(C(=O)c2ccc(Cl)cc2)CC1
inactive: IC50 [24] > 1 µM

O=C(Nc1ccc(Cl)c(Cl)c1)N[C@@H]1CC[C@@H](CCn2cc(C3CCCCC3)nn2)O[C@@H]1CO
active: AC50 [25] 0.538 µM | AC50 [26] 57.9 µM | AC50 [27] 46.9 µM | AC50 [28] 17.8 µM | AC50 [5] 12.4 µM
